In patent publication US6835382B2, “Ii peptide therapeutics to enhance antigen presentation” (University of Massachusetts, priority 1996, dated 2004):

Experiments:
[1] = test system: murine E^k MHC class II allele; test: simultaneous assay, E^k allele (CH27 APC, TPc9.1 T hybridoma, THMCC82-103 or PGCC81-104); type: cell-based
Procedure, shortened: (§1)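 Antigenic peptide, mitomycin C-treated APC, effector compound and allele-restricted T hybridoma cultured together for 24 h. Supernatant then transferred to interleukin-dependent HT-2 cells. T cell activation quantified as [3H]TdR uptake by HT-2 cells.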

[2] = biological target: T1, murine E^d MHC class II allele (Mus musculus, UniProt P01904+P01915); test: simultaneous assay, E^d allele (A20 APC, G28.C9 T hybridoma, HEL106-116; HT-2 [3H]TdR readout); type: cell-based; design: The A20 and CH27 B cell lymphoma lines express H-2^d and H-2^k alleles, respectively; endogenous in cells; host or cells: A20 B cell lymphoma (mitomycin C-treated or paraformaldehyde-fixed)
T1 sequence (P01904 26-255): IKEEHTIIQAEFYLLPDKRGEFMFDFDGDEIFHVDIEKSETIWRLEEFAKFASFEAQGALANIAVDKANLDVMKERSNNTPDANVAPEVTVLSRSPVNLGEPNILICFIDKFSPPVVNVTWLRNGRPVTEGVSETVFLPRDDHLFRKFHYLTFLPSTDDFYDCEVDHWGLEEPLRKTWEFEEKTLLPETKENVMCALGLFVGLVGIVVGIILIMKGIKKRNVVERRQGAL
T1 sequence (P01915 27-264 limits assumed): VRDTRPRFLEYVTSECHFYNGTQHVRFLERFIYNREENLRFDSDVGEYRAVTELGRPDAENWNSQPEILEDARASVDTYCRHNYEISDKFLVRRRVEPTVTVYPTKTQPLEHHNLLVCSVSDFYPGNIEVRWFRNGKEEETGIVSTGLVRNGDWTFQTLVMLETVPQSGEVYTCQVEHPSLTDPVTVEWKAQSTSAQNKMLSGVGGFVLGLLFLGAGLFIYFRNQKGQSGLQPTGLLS
Procedure, shortened: as §1

[3] = Table 13, AE peptide 1 μM (fourth value), supernatant 1:4
[4] = Table 13, AE peptide 4 μM (third value), supernatant 1:4
[5] = Table 13, AE peptide 16 μM (second value), supernatant 1:4
[6] = Table 13, AE peptide 64 μM (first value), supernatant 1:4
[7] = Table 14, AE peptide 64 μM, supernatant 1:4
[8] = Table 15, AE peptide 16 μM, supernatant 1:4
[9] = Table 2, AE peptide 64 μM, 0.05 μM PGCC81-104, supernatant 1:2
[10] = Table 2, AE peptide 64 μM, 0.05 μM HEL106-116, supernatant 1:2
[11] = Table 11, AE peptide 64 μM, supernatant 1:4
[12] = Table 11, AE peptide 64 μM, supernatant 1:8
[13] = Table 5, AE peptide 64 μM, supernatant 1:4, normalized to E^d by a factor of 10
[14] = Table 16, AE peptide 4 μM, supernatant 1:8
[15] = Table 5, AE peptide 64 μM, supernatant 1:4

## Ac- (mL) RMKLPK-NH2 [AE174]
[1]; [3]
  Times Baseline Response, E^k: 1.6
[1]; [4]
  Times Baseline Response, E^k: 3.1
[1]; [5]
  Times Baseline Response, E^k: 9.8
[1]; [6]
  Times Baseline Response, E^k: 35.1
[1]; [7]
  Times Baseline Response, E^k: 34.3
[2]; [3]
  Times Baseline Response, E^d: 1
[2]; [4]
  Times Baseline Response, E^d: 2
[2]; [5]
  Times Baseline Response, E^d: 40
[2]; [6]
  Times Baseline Response, E^d: 55
[2]; [7]
  Times Baseline Response, E^d: 15.9

## Ac-ARMKLPKSAK-NH2 [AE120]
[1]; Table 10, AE peptide 64 μM, supernatant 1:2 (first value)
  Times Baseline Response, E^k: 36.8
[1]; Table 10, AE peptide 64 μM, supernatant 1:4 (second value)
  Times Baseline Response, E^k: 34.9
[1]; [8]
  Times Baseline Response, E^k: 4.8
[2]; Table 10, AE peptide 16 μM (second value), supernatant 1:2
  Times Baseline Response, E^d: 18.1
[2]; Table 10, AE peptide 64 μM (first value), supernatant 1:2
  Times Baseline Response, E^d: 35.4
[2]; [8]
  Times Baseline Response, E^d: 19.4

## Ac-ARMKNPK-NH2 [AE345]
[1]; [8]
  Times Baseline Response, E^k: 4.8
[2]; [8]
  Times Baseline Response, E^d: 3.7

## Ac-ARNKLPK-NH2 [AE344]
[1]; [8]
  Times Baseline Response, E^k: 2.5
[2]; [8]
  Times Baseline Response, E^d: 7.7

## Ac-ARNKNPF-NH2 [AE347]
[1]; [8]
  Times Baseline Response, E^k: 2.8
[2]; [8]
  Times Baseline Response, E^d: 1.0

## Ac-ARNKNPK-NH2 [AE346]
[1]; [8]
  Times Baseline Response, E^k: 1.8
[2]; [8]
  Times Baseline Response, E^d: 1.2

## Ac-DSLRMKLPKSAK-NH2 [AE154]
[1]; [9]
  Times Baseline Response, E^k: 2.2
[2]; [10]
  Times Baseline Response, E^d: 15.1

## Ac-L r MKLPK-NH2 [AE161]
[1]; [11]
  Times Baseline Response, E^k: 1.1
[2]; [12]
  Times Baseline Response, E^d: 4.0

## Ac-LDSLRMKLPKSAK-NH2 [AE153]
[1]; [9]
  Times Baseline Response, E^k: 1.4
[2]; [10]
  Times Baseline Response, E^d: 8.5

## Ac-LQLDSLRMKLPKSAK-NH2 [AE151]
[1]; [9]
  Times Baseline Response, E^k: 0.6
[1]; Tables 2 and 18
  activity in simultaneous assay on E^k, in words: inhibition
[2]; [10]
  Times Baseline Response, E^d: 2.5

## Ac-LR (mL) KLPK-NH2 [AE302]
[1]; [7]
  Times Baseline Response, E^k: 26.1
[2]; [7]
  Times Baseline Response, E^d: 4.5

## Ac-LR (mL) KYPK-NH2 [AE303]
[1]; [7]
  Times Baseline Response, E^k: 25.3
[2]; [7]
  Times Baseline Response, E^d: 4.0

## Ac-LR (mL) KYPk-NH2 [AE305]
[1]; [7]
  Times Baseline Response, E^k: 26.8
[2]; [7]
  Times Baseline Response, E^d: 5.2

## Ac-LR (mL) KyPK-NH2 [AE304]
[1]; [7]
  Times Baseline Response, E^k: 13.4
[2]; [7]
  Times Baseline Response, E^d: 3.9

## Ac-LR (mL) KyPk-NH2 [AE306]
[1]; [7]
  Times Baseline Response, E^k: 13.7
[2]; [7]
  Times Baseline Response, E^d: 3.2

## Ac-LR HArg KLPK-NH2 [AE197]
[1]; [13]
  Times Baseline Response, E^k: 39.9
[1]; [14]
  Times Baseline Response, E^k: 1.7
[2]; [15]
  Times Baseline Response, E^d: 10.7
[2]; [14]
  Times Baseline Response, E^d: 16.3

## Ac-LR L KLPK-NH2 (Ac-LRLKLPK-NH2; not fully specified; printed as Ac-LR L KLPK-NH2) [AE206]
[1]; [13]
  Times Baseline Response, E^k: 33.9
[1]; [7]
  Times Baseline Response, E^k: 53.5
[1]; [8]
  Times Baseline Response, E^k: 35.3
[1]; [14]
  Times Baseline Response, E^k: 1.3
[2]; [15]
  Times Baseline Response, E^d: 11.9
[2]; [7]
  Times Baseline Response, E^d: 12.7
[2]; [8]
  Times Baseline Response, E^d: 25.5
[2]; [14]
  Times Baseline Response, E^d: 15.5

## Ac-LR N KLPK-NH2 (Ac-LRNKLPK-NH2) [AE202]
[1]; [13]
  Times Baseline Response, E^k: 9.3
[1]; [8]
  Times Baseline Response, E^k: 5.8
[2]; [15]
  Times Baseline Response, E^d: 18.2
[2]; [8]
  Times Baseline Response, E^d: 34.4

## Ac-LR m KLPK-NH2 [AE162]
[1]; [11]
  Times Baseline Response, E^k: 1.3
[2]; [12]
  Times Baseline Response, E^d: 2.2

## Ac-LRLK HArg PK-NH2 [AE341]
[1]; [8]
  Times Baseline Response, E^k: 42.4
[2]; [8]
  Times Baseline Response, E^d: 38.9
